Paper PMC5506005, “A novel protein kinase inhibitor IMB-YH-8 with anti-tuberculosis activity” (Scientific Reports, 2017)
≈ marks a conversion by molar mass, not a printed value. Like-named read-outs stand apart in the source and are kept apart here.

System: clinical isolates of M. tuberculosis
Test: microbe, parasite or virus in culture
Format: cell-based
Settings: Mycobacterium tuberculosis

`COC(=O)/C=C/C(=O)c1ccc(OC)cc1` [IMB-YH-8] was tested, and the MIC (clinical isolate 3303, resistant to INH, STR) was 0.5 µg/mL (≈ 2.27 µM), the MIC (clinical isolate 4201, resistant to RIF) was 0.25 µg/mL (≈ 1.14 µM) and the MIC (clinical isolate 5112, resistant to INH, RIF, STR, EMB) was 0.25 µg/mL (≈ 1.14 µM). For the same compound, the MIC (clinical isolate 5116, resistant to INH, RIF) was 0.25 µg/mL (≈ 1.14 µM), the MIC (clinical isolate 5120, resistant to INH, STR, EMB) was 0.5 µg/mL (≈ 2.27 µM) and the MIC (clinical isolate 6133, resistant to INH, RIF) was 0.25 µg/mL (≈ 1.14 µM). For the same compound, the MIC (clinical isolate 7153, resistant to INH, RIF) was 1 µg/mL (≈ 4.54 µM), the MIC (clinical isolate 11277, resistant to INH, RIF, STR) was 0.5 µg/mL (≈ 2.27 µM) and the MIC (clinical isolate 12179, resistant to INH, RIF) was 0.25 µg/mL (≈ 1.14 µM). The MIC (clinical isolate 12251, resistant to INH, RIF) was 0.5 µg/mL (≈ 2.27 µM), the MIC (clinical isolate 16559, resistant to STR, OFX) was 0.5 µg/mL (≈ 2.27 µM) and the MIC (clinical isolate 20161, resistant to INH, RIF) was 0.5 µg/mL (≈ 2.27 µM). The MIC (clinical isolate 23120, resistant to INH, RIF, STR) was 0.25 µg/mL (≈ 1.14 µM), the MIC (clinical isolate 23443, resistant to RIF) was 0.5 µg/mL (≈ 2.27 µM) and the MIC (read-out: MICs for drug-resistant isolates) was 0.25 to 1 µg/mL (≈ 1.14 to 4.54 µM).
